Test results reported in article PMC10544575, “Inhibitory mechanism of vortioxetine on CYP450 enzymes in human and rat liver microsomes” (Frontiers in Pharmacology, 2023).

Biological target: T1, CYP2C8 (Homo sapiens, UniProt P10632)
T1 sequence (P10632 1-490): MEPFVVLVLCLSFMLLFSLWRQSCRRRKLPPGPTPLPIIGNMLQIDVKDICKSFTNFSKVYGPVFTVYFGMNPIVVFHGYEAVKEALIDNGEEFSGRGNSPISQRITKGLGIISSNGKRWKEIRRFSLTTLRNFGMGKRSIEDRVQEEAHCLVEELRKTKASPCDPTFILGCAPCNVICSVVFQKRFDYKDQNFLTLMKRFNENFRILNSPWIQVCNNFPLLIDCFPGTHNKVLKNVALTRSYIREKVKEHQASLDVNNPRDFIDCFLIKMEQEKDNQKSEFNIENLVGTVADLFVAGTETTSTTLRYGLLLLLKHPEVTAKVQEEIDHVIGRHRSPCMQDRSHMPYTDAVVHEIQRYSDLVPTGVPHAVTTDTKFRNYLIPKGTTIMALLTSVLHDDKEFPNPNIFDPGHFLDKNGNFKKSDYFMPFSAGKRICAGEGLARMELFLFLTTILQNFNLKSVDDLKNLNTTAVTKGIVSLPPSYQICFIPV
Assay: Reversible inhibition kinetics (Lineweaver-Burk), CYP2C8 in HLMs
Type: in vitro ADME
Design: 0.20 mg/mL HLMs or 0.20 mg/mL RLMs; from tissue; host or cells: human liver microsomes
Procedure: The components of the incubation system were as follows: 0.20 mg/mL HLMs or 0.20 mg/mL RLMs, 0.1 M Tris-HCl, vortioxetine, and the probe substrates of each enzyme. In the study of Km’s (Michaelis–Menten constant) experiment, midazolam (1, 2, 5, 10, 20, 50 and 100 μM in HLMs and RLMs) corresponded to CYP3A4/3A; bupropion (10, 20, 50, 100, 200, 500, 1,000 and 2000 μM in HLMs; 1, 2, 5, 10, 20, 50, 100 and 200 μM in RLMs) corresponded to CYP2B6/2B; amodiaquine (5, 10, 20, 50, 100 and 200 μM in HLMs; 10, 20, 50, 100, 200, 500 μM in RLMs) corresponded to CYP2C8/CYP2C-1; losartan (1, 2, 5, 10, 20, 50, 100, 200 μM in HLMs; 10, 20, 50, 100, 200, 500 and 1,000 μM in RLMs) corresponded to CYP2C9/CYP2C-2; mephenytoin (20, 50, 100, 200, 500 and 1,000 μM in HLMs; 5, 10, 20, 50, 100, 200, 500 and 1,000 μM in RLMs) corresponded to CYP2C19/CYP2C-3; and dextromethorphan (1, 2, 5, 10, 20, 50 and 100 μM in HLMs and RLMs) corresponded to CYP2D6/CYP2D. After 5.0 min of preincubation in the shaking water bath, the reaction was started with the addition of 1.0 mM NADPH. The incubated temperature at 37°C for 30 min. After the incubation, the enzyme reaction was stopped by cooling at −80°C, and 200 μL of acetonitrile and 20 μL of internal standard diazepam (200 ng/mL) were added for protein precipitation. The solution was fully vortexed and centrifuged at 13,000 × rpm for 10 min, and the supernatant was collected for data analysis by UPLC-MS/MS.
The inhibitory mechanism of the inhibitor on the enzyme was generally used by different concentrations of the inhibitor against different concentrations of the probe substrate. The concentrations of the inhibitor and the concentrations of probe substrates in the experiment were estimated based on IC50 and Km values, respectively.
In HLMs, the concentrations of the substrates midazolam, bupropion, amodiaquine, losartan, mephenytoin, and dextromethorphan were 1, 2, 4, 8 μM; 10, 20, 40, 80 μM; 0.8, 1.5, 3, 6 μM; 2, 4, 8, 16 μM; 20, 45, 90, 180 μM; 2.5, 5, 10, 20 μM, respectively. Corresponding to the concentration of vortioxetine were 2, 4, 9, 18 μM; 2, 4, 8, 16 μM; 4, 8, 15, 30 μM; 5, 10, 25, 50 μM; 0.6, 1.2, 2.5, 5 μM; 4.5, 9, 18, 36 μM, respectively.
All experiments results were detected by UPLC-MS/MS, which equipped with a Waters Acquity UPLC system (Milford, MA, United States) and a Waters Xevo TQ-S triple quadrupole tandem mass spectrometer with an electrospray ionization source (Milford, MA, United States). The chromatographic separation was performed on a Waters ACQUITY UPLC BEH C18 column (2.1 × 50 mm, 1.7 μm, Waters Corp.) at 40°C. The mobile phase was consisted of acetonitrile (A) and 0.1% formic acid in water (B). The gradient elution at a flow rate of 0.4 mL/min was conducted as follows: 0–0.5 min, 10% A; 0.5–1.0 min, 10%–90% A; 1.0–2.0 min, 90% A; 2.0–2.1 min, 90%–10% A, and 2.1–3.0 min, 10% A. The relevant analysis parameters were shown in Table 1.
IC50 values and enzyme kinetic parameters were calculated by Graphpad Prism 6.0 (GraphPad software Inc., CA, United States). Lineweaver-Burk Plot was used to determine inhibitor patterns. Dixon plots of Ki values were obtained from the slope of the nonlinear regression line in the Lineweaver-Burk plot as a function of different inhibitor concentrations, while secondary plots for αKi were obtained from the y-intercept of the nonlinear regression line in Lineweaver-Burk Plot versus concentration of different inhibitors. Data for each experiment were expressed as mean ± SD (n = 3).

Ki (amodiaquine): 6.96 µM
α (amodiaquine): 1.94
Inhibition type (amodiaquine, Lineweaver-Burk plot): noncompetitive inhibition
αKi (amodiaquine, secondary plot of y-intercepts): 13.48 µM
Ki at 30 min (human, human liver microsomes, probe amodiaquine): 2.96 µM
SMILES: Cc1ccc(Sc2ccccc2N2CCNCC2)c(C)c1 [vortioxetine]
